This is an account of results in patent US9770503B2, “Immunomodulating compositions and uses therefor” (CANCURE LIMITED ACN 164 438 359, priority 2003, dated 2017).

Each structure is given as a SMILES string.

The test deals with splenic lymphocytes cultured with C57bl6J derived B16F10 melanoma cells. As to the kind of experiment: Mixed lymphocyte culture (MLC) screening assay, melanoma cells as stimulators. It is filed as cell-based, mice. To be noted: 3 days of growth; FIG. 4. The text has this:
The inventor has established a rapid screening assay for analysing the immune-enhancing activities of various lectin-interactive agents. The assay is based on the ability to grow lymphocytes derived from the spleens of vaccinated mice in mixed lymphocyte culture (MLC) in the presence or absence of the agents. The theory behind this approach is that tumour cells secrete galectins which then kill the T lymphocytes.
Tumour cells, either NeuD12 FVB/N 202 breast cancer cells or C57bl6J derived B16F10 melanoma cells were used as stimulators and target cells for the assays. The tumour cells used as stimulators in the MLC were prepared as outlined in WO 01/88097 to express high levels of B7 antigen and were treated with interferon γ (1000 IU/mL) for 24 h before addition of interferon β (1000 IU/mL) for a further 24-48 h. The tumour cells were grown in 35 mm diameter×6 well cell culture dishes at about 1.5×10^6 cells per well. The tumour cells, after IFN treatment, were incubated with the growth arresting drug, mitomycin C for 20-25 min in situ in the 6-well culture dishes before it was removed by washing with PBS or fresh media three times and resuspension in 4 mL of fresh complete RPMI media/10% FCS.
Lymphocytes were extracted from the spleen of vaccinated mice and passed through a 100-200 μm stainless steel mesh sieve into 5-10 mL complete RPMI media. The red blood cells were removed by centrifugation on lymphoprep and the white blood cell layer at the interface between the culture media phase and ficoll/Hypaque phase was harvested and the ficoll/Hypaque removed by washing. […] After 2-3 days, or as required (assessed by the colour of the media pH indicator change), half the media was carefully aspirated away from each well and replaced with fresh complete media with or without added lectin-interacting agent (e.g., a carbohydrate as disclosed for instance herein generally at about 0.1 mM to about 10 mM final concentration, typically at about 1 mM). […]

Regarding `OC[C@H]1O[C@@H](O[C@@H]2[C@@H](CO)OC(O)(CO)[C@H]2O)[C@H](O)[C@@H](O)[C@H]1O` (mixture of isomers) [lactulose], the “proliferation of lymphocytes in a melanoma-specific MLC” value was “promoting the proliferation of lymphocytes”.
Under `OC[C@@H](O)[C@@H](O[C@@H]1O[C@H](CO)[C@H](O)[C@H](O)[C@H]1O)[C@H](O)[C@@H](O)CO` [D-lactitol monohydrate] stands “promoting the proliferation of lymphocytes”; under `OC[C@H]1O[C@@H](O[C@H]2[C@H](O)[C@@H](O)[C@H](OCc3ccccc3)O[C@@H]2CO)[C@H](O)[C@@H](O)[C@H]1O` [benzyl 4-O-β-D-galactopyranosyl-β-D-glucopyranoside], “promoting the proliferation of lymphocytes”.
